Test results reported in patent US20120316105A1, “Polymyxin Derivates Useful As Antibacterial Agents” (priority 2011, published 2012).
Bridge positions count the residues as written; N and C are the ends. Square brackets hold non-standard residues; d marks the D form. Peptide text beside a SMILES is read from it. * marks the point of attachment. X30 = O=C(c1ccc(Cl)c(-c2ccccc2)c1)*; X32 = N#Cc1cc(C(=O)*)ccc1-c1ccccc1; 2Naphthoyl = O=C(c1ccc2ccccc2c1)*; X5 = O=C(c1ccnc(-c2cccc(F)c2)c1)*; X12 = O=C(c1cccc(-c2ccccc2F)c1)*; Dab = NCC[C@H](N)C(=O)O; Dap = NC[C@H](N)C(=O)O

Experiments:
[1] = tested on: PA-1646, polymyxin-resistant clinical isolate of Pseudomonas aeruginosa; type: cell-based; conditions: PA-1646, polymyxin-resistant clinical isolate of
Experimental: (§1) Minimum bactericidal concentration (MBC, mg/L), minimum inhibitory concentration (MIC, mg/L), and human renal proximal tubule epithelial cell line cytotoxicity concentration 50% (hRPTEC, TC50, micromolar) for compounds of Formula I are listed in Table 2. The compounds of Formula I were tested as the corresponding trifluoroacetate salt except for Example 1 which was tested as the sulfate salt. For Table 2 below: PMB=polymyxin B as the sulfate salt (Bedford Laboratories, pharmaceutical grade); PMB1=polymyxin B1 as the trifluoroacetate salt; Nona=polymyxin B nonapeptide as the trifluoroacetate salt. PMB1 and Nona were prepared using the solid phase methodology described in the experimental section herein.
(§2) The in vitro antibacterial activity of compounds of Formula I was evaluated by MIC testing according to Clinical and Laboratory Standards Institute (CLSI). See: Clinical and Laboratory Standards Institute. Methods for Dilution Antimicrobial Susceptibility Tests for Bacteria that Grow Aerobically; Approved Standard-Eighth Edition. CLSI document M7-A8 [ISBN 1-56238-689-1]. Clinical and Laboratory Standards Institute, 940 West Valley Road, Suite 1400, Wayne, Pa. 19087-1898 USA, 2006; also Clinical and Laboratory Standards Institute. Performance Standards for Antimicrobial Susceptibility Testing; Twentieth Informational Supplement. CLSI document M100-S20 [ISBN 1-56238-716-2]. Clinical and Laboratory Standards Institute. Methods for Determining Bactericidal Activity of Antimicrobial Agents; Approved Guideline. CLSI document M26-A (ISBN 1-56238-384-1). CLSI, 940 West Valley Road, Suite 1400, Wayne, Pa. 19087-1898 USA, 1999.
PA-1646 is a polymyxin-resistant clinical isolate of Pseudomonas aeruginosa obtained from JMI labs (www.jmilabs.com);

[2] = tested on: AB-1649, polymyxin-resistant clinical isolate of Acinetobacter baumannii; type: cell-based; conditions: AB-1649, polymyxin-resistant clinical isolate of
Experimental: as §1, §2
(§3) The MIC determination is a standard laboratory method for evaluating the antibacterial activity of a compound. The MIC represents the lowest drug concentration that inhibits visible growth of bacteria following overnight incubation. […] Typically, the drug concentration range is broken down into 2-fold increments (e.g. 0.06 mg/L, 0.12 mg/L, 0.25 mg/L, 0.50 mg/L, 1.0 mg/L, etc.) and the various drug concentrations are all individually incubated overnight with approximately the same number of bacteria. The MIC is then determined by visually inspecting the drug effect at each concentration, and identifying the lowest drug concentration that has inhibited bacterial growth as compared to the drug free control. Typically, bacteria continue to grow at drug concentrations lower than the MIC and don't grow at concentrations at and above the MIC.
(§4) The MIC values described in Table 2 below were derived from assays wherein each test compound was evaluated in duplicate. In cases where the duplicate values varied by 0-2-fold, the lower of the two values was reported below. Generally speaking, if the duplicate values varied by more than 2-fold, the assay was considered non-valid and was repeated until the variation between duplicate runs was ≦2-fold. In line with the CLSI guidelines referred to above, both control organisms and reference compounds were utilized in each MIC assay to provide proper quality control. MIC values generated with these control organisms and reference compounds were required to fall within a defined range for the assay to be considered valid and be included herein. Those skilled in the art will recognize that MIC values can and do vary from experiment to experiment. Generally speaking, it should be recognized that MIC values often vary +/−2-fold from experiment to experiment. While a single MIC is reported for each compound and each microorganism, the reader should not conclude that each compound was only tested once. Several of the compounds were subjected to multiple tests. The data reported in Table 2 is reflective of the compounds relative activity and different MICs may have been generated on these occasions in line with the guidelines described above.
(§5) The following bacterial strains were used in these MIC determinations: […]

[3] = tested on: AB-3167, clinical isolate of Acinetobacter baumannii; type: cell-based; conditions: AB-3167, clinical isolate of
Experimental: as §1, §2, §3, §4, §5

[4] = tested on: PA-1646, polymyxin-resistant clinical isolate of Pseudomonas aeruginosa; type: cell-based; conditions: PA-1646, polymyxin-resistant clinical isolate of; remark: listed apart in the source
Experimental: as §1, §2, §3, §4, §5

[5] = tested on: Pseudomonas aeruginosa strain PA01; type: cell-based; conditions: strain
Experimental: as §1, §2, §3, §4, §5

[6] = tested on: AB-1649, polymyxin-resistant clinical isolate of Acinetobacter baumannii; type: cell-based; conditions: AB-1649, polymyxin-resistant clinical isolate of; remark: listed apart in the source
Experimental: as §1, §2
AB-1649 is a polymyxin-resistant clinical isolate of Acinetobacter baumannii obtained from JMI labs (www.jmilabs.com);

[7] = tested on: EC-1, mouse virulent strain of Escherichia coli; type: cell-based; conditions: E. coli EC-1; overnight incubation, lower of duplicate values; trifluoroacetate salt (Example 1 and PMB sulfate)
Experimental: as §1, §2, §3, §4
The following bacterial strains were used in these MIC determinations:
EC-1 is a mouse virulent strain of Escherichia coli.

[8] = Cytotoxicity assay (LDH release), hRPTEC; type: cell-based, human; conditions: human
Experimental: as §1
Human Renal Proximal Tubule Epithelial cells (hRPTEC) were obtained from Lonza (Walkersville, Md., USA) and cultured in REGM (Renal Epithelial Cell Basal Medium supplemented with human epithelial growth factor, hydrocortisone, epinephrine, insulin, triiodothyronine, transferrin, gentamycin/amphotericin-B, and fetal bovine serum). The hRPTEC cells were seeded into 96-well plates and incubated at 37° C. in 5% CO2. Following a growth period of 72 hours, cells were treated with compounds at 100, 67, 44, 30, 20 and 13 micromolar for 24 hours at 37° C. in 5% CO2. The cell supernatant was then harvested for determination of LDH (lactate dehydrogenase) production. The Cytotoxicity Detection Kit from Roche was used for the measurement of LDH activity released from damaged cells. The Toxic Concentration 50% (TC50, micromolar) values were determined for each compound and compared to the control compounds (polymyxin B was used as a positive control and polymyxin B nonapepetide was used as negative control).

SMILES | PA-1646 MBC [1] | AB-1649 MIC [2] | AB-3167 MIC [3] | PA-1646 MIC [4] | PA01 MIC [5] | AB-1649 MBC [6] | EC-1 MIC [7] | CC50 at 24 h [8]
CC(C)C[C@@H]1NC(=O)[C@@H](Cc2ccccc2)NC(=O)[C@H](CCN)NC(=O)[C@@H](NC(=O)[C@H](CN)NC(=O)[C@@H](NC(=O)[C@H](CCN)NC(=O)c2ccc3ccccc3c2)[C@@H](C)O)CCNC(=O)[C@H]([C@@H](C)O)NC(=O)[C@H](CCN)NC(=O)[C@H](CCN)NC1=O [Example 6] (2Naphthoyl-[Dab]T[Dap][Dab][Dab][dF]L[Dab][Dab]T; lactam 4-C) | 16 mg/L | 2 mg/L | 0.25 mg/L | 4 mg/L | 0.5 mg/L | 2 mg/L | 0.125 mg/L | 51 µM
CC(C)C[C@@H]1NC(=O)[C@@H](Cc2ccccc2)NC(=O)[C@H](CCN)NC(=O)[C@@H](NC(=O)[C@H](CN)NC(=O)[C@@H](NC(=O)[C@H](CCN)NC(=O)c2ccnc(-c3cccc(F)c3)c2)[C@@H](C)O)CCNC(=O)[C@H]([C@@H](C)O)NC(=O)[C@H](CCN)NC(=O)[C@H](CCN)NC1=O [Example 7] (X5-[Dab]T[Dap][Dab][Dab][dF]L[Dab][Dab]T; lactam 4-C) | 8 mg/L | 1 mg/L | 0.25 mg/L | 2 mg/L | 0.5 mg/L | 1 mg/L | 0.125 mg/L | 41 µM
CC(C)C[C@@H]1NC(=O)[C@@H](Cc2ccccc2)NC(=O)[C@H](CCN)NC(=O)[C@@H](NC(=O)[C@H](CN)NC(=O)[C@@H](NC(=O)[C@H](CCN)NC(=O)c2ccc(-c3ccccc3)c(C#N)c2)[C@@H](C)O)CCNC(=O)[C@H]([C@@H](C)O)NC(=O)[C@H](CCN)NC(=O)[C@H](CCN)NC1=O [Example 8] (X32-[Dab]T[Dap][Dab][Dab][dF]L[Dab][Dab]T; lactam 4-C) | 4 mg/L | 1 mg/L | 0.25 mg/L | 2 mg/L | 1 mg/L | 1 mg/L | 0.5 mg/L | 32 µM
CC(C)C[C@@H]1NC(=O)[C@@H](Cc2ccccc2)NC(=O)[C@H](CCN)NC(=O)[C@@H](NC(=O)[C@H](CN)NC(=O)[C@@H](NC(=O)[C@H](CCN)NC(=O)c2cccc(-c3ccccc3F)c2)[C@@H](C)O)CCNC(=O)[C@H]([C@@H](C)O)NC(=O)[C@H](CCN)NC(=O)[C@H](CCN)NC1=O [Example 9] (X12-[Dab]T[Dap][Dab][Dab][dF]L[Dab][Dab]T; lactam 4-C) | 2 mg/L | 1 mg/L | 0.25 mg/L | 2 mg/L | 0.5 mg/L | 2 mg/L | 0.25 mg/L | 24 µM
CC(C)C[C@@H]1NC(=O)[C@@H](Cc2ccccc2)NC(=O)[C@H](CCN)NC(=O)[C@@H](NC(=O)[C@H](CN)NC(=O)[C@@H](NC(=O)[C@H](CCN)NC(=O)c2ccc(Cl)c(-c3ccccc3)c2)[C@@H](C)O)CCNC(=O)[C@H]([C@@H](C)O)NC(=O)[C@H](CCN)NC(=O)[C@H](CCN)NC1=O [Example 10] (X30-[Dab]T[Dap][Dab][Dab][dF]L[Dab][Dab]T; lactam 4-C) | 1 mg/L | 1 mg/L | 0.5 mg/L | 0.5 mg/L | 1 mg/L | 1 mg/L | 0.25 mg/L | 14 µM
